# Test results as given in patent US9623078B2, “Method for treating cardiac infarction using HMGB1 fragment” (GENOMIX CO., LTD, priority 2012, dated 2017).
# Tests used:
# [1] = system: PDGFRα-positive bone marrow mesenchymal stem cells; assay: Recruitment of PDGFRα-positive bone marrow-derived mesenchymal stem cells to myocardium in myocardial infarction model (GFP/PDGFRα immunofluorescence); type: in vivo, mouse; conditions: N=4, P<0.05
# Protocol: (§1) Bone marrow cells were collected from the thigh bone/lower leg bone of three-week-old mice (C57BL6-CAG-GFP transgenic mice), and the bone marrow cell suspension was administered ([…]) to the tail vein of six-week-old mice (C57BL6) after irradiation (10GY) to produce bone marrow chimeric mice. Sixty days after bone marrow transplantation, left fourth interspace thoracotomy was performed under general anesthesia in the supine position, and the proximal left anterior descending coronary artery was ligated to produce an extensive myocardial infarction model (left anterior descending coronary artery/circumflex occlusion model). In making the HMGB1 protein low molecular, a fragment peptide (1-44) of the HMGB1 protein was developed in consideration of retaining the activity of recruiting bone marrow mesenchymal stem cells. […] Regarding the number of bone marrow-derived mesenchymal stem cells accumulated in the tissue, the number of cells positive for both GFP and PDGFRα present in all areas of randomly-selected 5 sections were determined and the mean value was calculated. […] Real-time PCR was performed with the Gene Amp(R) PCR System 9700 (Life Technologies Japan) using the above-mentioned cDNA as a template, and the levels of TNFα and IL-1β mRNA were determined as a ratio to the GAPDH mRNA level. […]
# TNFα mRNA = TNFα mRNA level in myocardial tissue of myocardial infarction model (real-time PCR); type: in vivo, mouse; conditions: ratio to GAPDH mRNA level; N=4; negative control 11±3; P<0.05; day not stated in text (FIG. 1C: 7 and 56 days)
# Protocol: as §1
# IL-1β mRNA = IL-1β mRNA level in myocardial tissue of myocardial infarction model (real-time PCR); type: in vivo, mouse; conditions: ratio to GAPDH mRNA level; N=4; negative control 6±1; P<0.05; day not stated in text (FIG. 1D: 7 and 56 days)
# Protocol: as §1
# [2] = system: acute stage myocardial infarction mouse model; assay: Cardiac function by echocardiography in myocardial infarction model; type: in vivo
# Protocol: Bone marrow cells were collected from the thigh bone/lower leg bone of three-week-old mice (C57BL6-CAG-GFP transgenic mice), and the bone marrow cell suspension was administered ([…]) to the tail vein of six-week-old mice (C57BL6) after irradiation (10GY) to produce bone marrow chimeric mice. Sixty days after bone marrow transplantation, left fourth interspace thoracotomy was performed under general anesthesia in the supine position, and the proximal left anterior descending coronary artery was ligated to produce an extensive myocardial infarction model (left anterior descending coronary artery/circumflex occlusion model). In making the HMGB1 protein low molecular, a fragment peptide (1-44) of the HMGB1 protein was developed in consideration of retaining the activity of recruiting bone marrow mesenchymal stem cells. At 6, 24, 48, 72, and 96 hours after infarction creation, the HMGB1 protein fragment peptide (1-44) (5 μg/300 μl), or 300 μl of PBS (negative control group) was administered five times to the tail vain. Mice were euthanized by administration of excess ketamine and xylazine, and their hearts were collected. After the tissues were embedded in OCT compound, cryosections of 5 μm thickness were prepared. […] Regarding the number of bone marrow-derived mesenchymal stem cells accumulated in the tissue, the number of cells positive for both GFP and PDGFRα present in all areas of randomly-selected 5 sections were determined and the mean value was calculated. […] Real-time PCR was performed with the Gene Amp(R) PCR System 9700 (Life Technologies Japan) using the above-mentioned cDNA as a template, and the levels of TNFα and IL-1β mRNA were determined as a ratio to the GAPDH mRNA level. Improvement in the cardiac function was evaluated by measuring the left ventricular end-diastolic diameter (LVDd: Dd), left ventricular end-systolic diameter (LVDs: Ds), and left ventricular ejection fraction (LVEF: EF) using the Vivid 7 Echocardiography System and 12-MHZ Transducer (General Electric).
substance,measurement,setting,value
"HMGB1 protein fragment peptide (1-44): peptide consisting of amino acids at positions 1 to 44 of an HMGB1 protein (SEQ ID NO: 3), produced by peptide synthesis (MGKGDPKKPRGKMSSYAFFVQTCREEHKKKHPDASVNFSEFSKK; Synthesized peptide from an HMGB1 protein)","number of PDGFRα-positive bone marrow-derived mesenchymal cells, non-infarction site","[1]; day 7 post infarction creation, 5 μg/300 μl tail vein x5 (6, 24, 48, 72, 96 h), negative control 32±9",52±11 cells/mm^2
same,"recruitment of PDGFRα-positive bone marrow mesenchymal stem cells in all areas (infarction, border, non-infarction sites) vs. negative control",[1]; seven days after creating myocardial infarction,significantly recruited
same,"TNFα mRNA level, non-infarction site",TNFα mRNA,4±2 GAPDH
same,"IL-1β mRNA level, non-infarction site",IL-1β mRNA,2±1 GAPDH
same,left ventricular end-diastolic diameter (DD),"[2]; Day 56 after infarction, N=8, negative control (N=16) 6.3±0.2, P<0.05",5.8±0.2 mm
same,left ventricular ejection fraction (EF),"[2]; Day 56 after infarction, N=8, negative control (N=16) 20±4, P<0.05",26±4%
same,"aggravation of left ventricular systolic function, left ventricular enlargement, and left ventricular remodeling","[2]; myocardial infarction model, five-day administration",significantly suppressed
